# Assay results taken from US11149022B2, “Antagonists of the muscarinic acetylcholine receptor M4” (Vanderbilt University, priority 2017, dated 2021).
# pIC50: −log10 of the molar value.
# Target: T1, Human M4 (Homo sapiens, UniProt P08173)
# T1 construct: expressed in transfected cells; host or cells: CHO-K1 (ATCC), stably co-expressing chimeric G protein Gqi5
# T1 sequence (P08173 1-479): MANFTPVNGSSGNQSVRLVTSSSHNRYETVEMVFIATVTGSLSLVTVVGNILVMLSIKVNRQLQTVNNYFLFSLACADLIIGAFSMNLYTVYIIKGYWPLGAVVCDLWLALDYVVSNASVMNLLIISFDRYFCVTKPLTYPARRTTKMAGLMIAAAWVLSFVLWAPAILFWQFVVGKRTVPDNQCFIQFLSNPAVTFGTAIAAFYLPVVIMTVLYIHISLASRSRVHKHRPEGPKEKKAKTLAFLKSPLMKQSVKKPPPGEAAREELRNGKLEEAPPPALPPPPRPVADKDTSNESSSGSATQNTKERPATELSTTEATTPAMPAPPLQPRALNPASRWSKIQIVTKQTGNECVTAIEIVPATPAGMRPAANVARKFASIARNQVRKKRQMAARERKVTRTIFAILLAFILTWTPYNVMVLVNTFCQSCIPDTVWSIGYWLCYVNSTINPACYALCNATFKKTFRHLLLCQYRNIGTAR
# Assay: mAChR M4 cell-based functional assay (calcium flux, antagonist mode)
# Details: for remaining activity at 30 µM: % ACh maximum at 30 μM, read-out: Emin; for pIC50: M4/Gqi5/CHO-K1 cells, concentration-dependent decrease of the EC80 acetylcholine response
# Experimental: Human or rat M4 cDNA, along with the chimeric G protein Gqi5, were transfected into Chinese hamster ovary (CHO-K1) cells purchased from the American Type Culture Collection using Lipofectamine2000. M4/Gqi5/CHO cells were grown in Ham's F-12 medium containing 10% heat-inactivated fetal bovine serum (FBS), 20 mM HEPES, 500 μg/mL G418 sulfate, and 200 μg/mL Hygromycin B.
# For high throughput measurement of agonist-evoked increases in intracellular calcium, CHO-K1 cells stably expressing muscarinic receptors were plated in growth medium lacking G418 and hygromycin at 15,000 cells/20 μL/well in Greiner 384-well black-walled, tissue culture (TC)-treated, clear-bottom plates (VWR). Cells were incubated overnight at 37° C. and 5% CO2. The next day, cells were washed using an ELX 405 (BioTek) with assay buffer; the final volume was then aspirated to 20 μL, Next, 20 μL of a 2.3 μM stock of Fluo-4/acetoxymethyl ester (Invitrogen, Carlsbad, Calif.), prepared as a 2.3 μM stock in DMSO, mixed in a 1:1 ratio with 10% (w/v) Pluronic F-127 and diluted in assay buffer, was added to the wells and the cell plates were incubated for 50 min at 37° C. and 5% CO2. Dye was removed by washing with the ELX 405 and the final volume was aspirated to […]. Compound master plates were formatted in a 10 point concentration-response curve (CRC) format (1:3 dilutions) in 100% DMSO with a starting concentration of 10 or 1 mM using a BRAVO liquid handler (Agilent). Test compound CRCs were then transferred to daughter plates (240 nL) using the Echo acoustic plate reformatter (Labcyte, Sunnyvale, Calif.) and then diluted into assay buffer (40 μL) to a 2× stock using a Thermo Fisher Combi (Thermo Fisher Scientific, Waltham, Mass.).
# Calcium flux was measured using the Functional Drug Screening System (FDSS) 6000 or 7000 (Hamamatsu Corporation, Tokyo, Japan) as an increase in the fluorescent static ratio. Compounds were applied to cells (20 μL, 2×) using the automated system of the FDSS at 2 seconds into the protocol and the data were collected at 1 Hz. At 143 s, 10 μL of an EC20 concentration of the muscarinic receptor agonist acetylcholine was added (5×), followed by the addition of 12 μL of an EC80 concentration of acetylcholine at the 268 s time point (5×). Agonist activity was analyzed as a concentration-dependent increase in calcium mobilization upon compound addition. Positive allosteric modulator activity was analyzed as a concentration-dependent increase in the EC20 acetylcholine response. Antagonist activity was analyzed as a concentration-dependent decrease in the EC80 acetylcholine response; for the purposes of the tables herein, an […] (inhibitory concentration 50) was calculated as a concentration-dependent decrease of the response elicited by an EC80 concentration of acetylcholine. Concentration-response curves were generated using a four-parameter logistical equation in XLFit curve fitting software (IDBS, Bridgewater, N.J.) for Excel (Microsoft, Redmond, Wash.) or Prism (GraphPad Software, Inc., San Diego, Calif.) or the Dotmatics software platform (Dotmatics, Bishop's Stortford, UK).
# Compounds were synthesized as described above. Activity (IC50 and Emin) was determined in the mAChR M4 cell-based functional assay as described above and the data are shown in Table 4.
structure (smiles),measurement,value
"Cc1nn(C)cc1-c1ccc(NC2CC3(CCN(CCC(C)(C)C)CC3)C2)nn1 [Compound 1, 7-(3,3-Dimethylbutyl)-N-[6-(1,3-dimethylpyrazol-4-yl)pyridazin-3-yl]-7-azaspiro[3.5]nonan-2-amine]",remaining activity at 30 µM,3.48%
"Cc1cnn(C)c1-c1ccc(NC2CC3(CCN(CCC(C)(C)C)CC3)C2)nn1 [Compound 2, 7-(3,3-Dimethylbutyl)-N-[6-(2,4-dimethylpyrazol-3-yl)pyridazin-3-yl]-7-azaspiro[3.5]nonan-2-amine]",remaining activity at 30 µM,3.29%
same,pIC50,7.05
"Cc1nn(C)cc1-c1ccc(NC2CC3(CCN(CC4CC5C=CC4C5)CC3)C2)nn1 (stereo not drawn) [Compound 3, 7-(5-bicyclo[2.2.1]hept-2-enylmethyl)-N-[6-(1,3-dimethylpyrazol-4-yl)pyridazin-3-yl]-7-azaspiro[3.5]nonan-2-amine]",remaining activity at 30 µM,3.12%
same,pIC50,8.00
"Cc1nn(C)cc1-c1ccc(NC2CC3(CCN(CC(C)C(C)(C)C)CC3)C2)nn1 (stereo not drawn) [Compound 4, N-[6-(1,3-dimethylpyrazol-4-yl)pyridazin-3-yl]-7-(2,3,3-trjmethylbutyl)-7-azaspiro[3.5]nonan-2-amine]",remaining activity at 30 µM,4.05%
same,pIC50,5.99
"Cc1nn(C)cc1-c1ccc(NC2CC3(CCN(CC4CCOCC4)CC3)C2)nn1 [Compound 5, N-[6-(1,3-dimethylpyrazol-4-yl)pyridazin-3-yl]-7-(tetrahydropyran-4-ylmethyl)-7-azaspiro[3.5]nonan-2-amine]",remaining activity at 30 µM,15.9%
same,pIC50,< 5.00
Cc1nn(C)cc1-c1ccc(NC2CC3(CCN(CC4CCSCC4)CC3)C2)nn1 [Compound 6],remaining activity at 30 µM,4.58%
same,pIC50,6.48
"Cc1cccnc1CN1CCC2(CC1)CC(Nc1ccc(-c3cn(C)nc3C)nn1)C2 [Compound 7, N-[6-(1,3-dimethyipyrazol-4-yl)pyridazin-3-yl]-7-[(3-methyl-2-pyridyl)methyl]-7-azaspiro[3.5]nonan-2-amine]",remaining activity at 30 µM,9.14%
same,pIC50,5.76
"Cc1cnn(C)c1-c1ccc(NC2CC3(CCN(CC4CC5C=CC4C5)CC3)C2)nn1 (stereo not drawn) [Compound 8, 7-(5-bicyclo[2.2.1]hept-2-enylmethyl)-N-[6-(2,4-dimethylpyrazol-3-yl)pyridazin-3-yl]-7-azaspiro[3.5]nonan-2-amine]",remaining activity at 30 µM,2.86%
same,pIC50,8.00
"Cc1cnn(C)c1-c1ccc(NC2CC3(CCN(CC(C)C(C)(C)C)CC3)C2)nn1 (stereo not drawn) [Compound 9, N-[6-(2,4-dimethylpyrazol-3-yl)pyridazin-3-yl]-7-(2,3,3-trimethylbutyl)-7-azaspiro[3.5]nonan-2-amine]",remaining activity at 30 µM,3.11%
same,pIC50,6.66
"Cc1cnn(C)c1-c1ccc(NC2CC3(CCN(CC4CCOCC4)CC3)C2)nn1 [Compound 10, N-[6-(2,4-dimethylpyrazol-3-yl)pyridazin-3-yl]-7-(tetrahydropyran-4-ylmethyl)-7-azaspiro[3.5]nonan-2-amine]",remaining activity at 30 µM,23.1%
same,pIC50,< 5.00
"Cc1cnn(C)c1-c1ccc(NC2CC3(CCN(CC4CCSCC4)CC3)C2)nn1 [Compound 11, N-[6-(2,4-dimethylpyrazol-3-yl)pyridazin-3-yl]-7-(tetrahydrothiopyran-4-ylmethyl)-7-azaspiro[3.5]nonan-2-amine]",remaining activity at 30 µM,3.95%
same,pIC50,6.68
"Cc1cccnc1CN1CCC2(CC1)CC(Nc1ccc(-c3c(C)cnn3C)nn1)C2 [Compound 12, N-[6-(2,4-dimethylpyrazol-3-yl)pyridazin-3-yl]-7-[(3-methyl-2-pyridyl)methyl]-7-azaspiro[3.5]nonan-2-amine]",remaining activity at 30 µM,6.85%
same,pIC50,5.95
"Cc1nn(C)cc1-c1ccc(OC2CC3(CCN(CCC(C)(C)C)CC3)C2)nn1 [Compound 13, 7-(3,3-Dimethylbutyl)-2-[6-(1,3-dimethylpyrazol-4-yl)pyridazin-3-yl]oxy-7-azaspiro[3.5]nonane]",remaining activity at 30 µM,2.85%
same,pIC50,6.70
"Cc1cnn(C)c1-c1ccc(OC2CC3(CCN(CCC(C)(C)C)CC3)C2)nn1 [Compound 14, 7-(3,3-Dimethylbutyl)-2-[6-(2,4-dimethylpyrazol-3-yl)pyridazin-3-yl]oxy-7-azaspiro[3.5]nonane]",remaining activity at 30 µM,3.92%
same,pIC50,6.62
"CC(C)(C)CCN1CCC2(CC1)CC(Oc1ccc(-c3cc(F)ccc3Cl)nn1)C2 [Compound 15, 2-[6-(2-Chloro-5-fluoro-phenyl)pyridazin-3-yl]oxy-7-(3,3-dimethylbutyl)-7-azaspiro[3.5]nonane]",remaining activity at 30 µM,3.01%
same,pIC50,6.48
"Fc1ccc(Cl)c(-c2ccc(OC3CC4(CCN(CC5CC6C=CC5C6)CC4)C3)nn2)c1 (stereo not drawn) [Compound 16, 7-(5-bicyclo[2.2.1]hept-2-enylmethyl)-2-[6-(2-chloro-5-fluoro-phenyl)pyridazin-3-yl]oxy-7-azaspiro[3.5]nonane]",remaining activity at 30 µM,3.07%
same,pIC50,6.74
"CC(CN1CCC2(CC1)CC(Oc1ccc(-c3cc(F)ccc3Cl)nn1)C2)C(C)(C)C (stereo not drawn) [Compound 17, 2-[6-(2-chloro-5-fluoro-phenyl)pyridazin-3-yl]oxy-7-(2,3,3-trimethylbutyl)-7-azaspiro[3.5]nonane]",remaining activity at 30 µM,2.73%
same,pIC50,6.23
"Fc1ccc(Cl)c(-c2ccc(OC3CC4(CCN(CC5CCCCC5)CC4)C3)nn2)c1 [Compound 18, 2-[6-(2-chloro-5-fluoro-phenyl)pyridazin-3-yl]oxy-7-(cyclohexylmethyl)-7-azaspiro[3.5]nonane]",remaining activity at 30 µM,2.94%
same,pIC50,6.12
"Fc1ccc(Cl)c(-c2ccc(OC3CC4(CCN(CC5CCOCC5)CC4)C3)nn2)c1 [Compound 19, 2-[6-(2-chloro-5-fluoro-phenyl)pyridazin-3-yl]oxy-7-(tetrahydropyran-4-ylmethyl)-7-azaspiro[3.5]nonane]",remaining activity at 30 µM,3.47%
same,pIC50,5.94
"Fc1ccc(Cl)c(-c2ccc(OC3CC4(CCN(CC5CCCOC5)CC4)C3)nn2)c1 (stereo not drawn) [Compound 20, 2-[6-(2-chloro-5-fluoro-phenyl)pyridazin-3-yl]oxy-7-(tetrahydropyran-3-ylmethyl)-7-azaspiro[3.5]nonane]",remaining activity at 30 µM,5.55%
same,pIC50,5.75
"Fc1ccc(Cl)c(-c2ccc(OC3CC4(CCN(CC5CCSCC5)CC4)C3)nn2)c1 [Compound 21, 2-[6-(2-chloro-5-fluoro-phenyl)pyridazin-3-yl]oxy-7-(tetrahydrothiopyran-4-ylmethyl)-7-azaspiro[3.5]nonane]",remaining activity at 30 µM,3.22%
same,pIC50,6.28
"Fc1ccc(Cl)c(-c2ccc(OC3CC4(CCN(Cc5ccccc5)CC4)C3)nn2)c1 [Compound 22, 7-benzyl-2-[6-(2-chloro-5-fluoro-phenyl)pyridazin-3-yl]oxy-7-azaspiro[3.5]nonane]",remaining activity at 30 µM,3.34%
same,pIC50,5.90
"Cc1cccnc1CN1CCC2(CC1)CC(Oc1ccc(-c3cc(F)ccc3Cl)nn1)C2 [Compound 23, 2-[6-(2-chloro-5-fluoro-phenyl)pyridazin-3-yl]oxy-7-[(3-methyl-2-pyridyl)methyl]-7-azaspiro[3.5]nonane]",remaining activity at 30 µM,3.36%
same,pIC50,6.05
